# In patent US3980646A, “3-Methylpyrazole-5-carboxylates and medicaments containing these compounds” (Wulfing; Johann A., priority 1974, dated 1976):
# Several values for one entry are separate records, joined by “and”; a condition that tells them apart may be missing. Equal entries are not always repeated. Entries after “also recorded” stand apart in the source; their conditions may differ.
# Tests used:
# serum cholesterol = assay: influence on the serum cholesterol of repeated application; format: in vivo, rats male (Wistar); conditions: for serum cholesterol: individual animals, starve for 5 hours, 100 mg/kg; for serum cholesterol / serum cholesterol, mean (x10): 100 mg/kg x/day p.o.; for serum cholesterol, mean (x10): control 71.28
# Description: Influence on the serum cholesterol of repeated application of
# 100 mg/kg x/day p.o. rats male, starve for 5 hours, ether narcosis, heart
# last application 1 hour before killing (cf. FIG. 3)
# free fatty acids (FFS) [1] = assay: influence on the free fatty acids (FFS) after repeated application once daily for 4 days; format: in vivo, Rats male (Wistar); conditions: for free fatty acids (FFS): individual animals; for free fatty acids (FFS) / free fatty acids (FFS), mean (x10): 4 × appl. 50 mg/kg p.o.; for free fatty acids (FFS), mean (x10): control 1.27, p<0.001
# Description: Rats male, repeated application once daily for 4 days,
# on the 4th day groups of 10 animals were killed at
# intervals of 30 minutes, 1 hour and 2 hours after the
# last application by ether narcosis and heart puncture.
# 10 controls were given esophagus probe, animals starved
# for 17 hours before killing (cf. FIG. 4)
# 7-[3-(N-methyl-2-hydroxyethyl)-amino-2-
# hydroxypropyl]-1,3-dimethylxanthine-3-
# methylpyrazole-5-carboxylate 50 mg/kg peroral
# 3-methylpyrazole-5-carboxylic acid (3-MPC)
# eq./kg 15 mg/kg peroral
# serum fatty acids (FFS) [2] = assay: influence on the serum fatty acids (FFS) of normal animals; format: in vivo, Female rats (Wistar); conditions: normal female rats, 100 mg/kg oral, 1 hour after application
# Description: (§1) Investigations on a total of 260 Wistarrats were conducted with 7-[3-(N-methyl-N-2-hydroxyethyl)-amino-2-hydroxypropyl]-1,3-dimethylxanthine-3-methylpyrazole-5-carboxylate.
# (§2) Examination of the influence of 7-[3-(N-methyl-N-2-hydroxy-
# (§3) ethyl)-amino-2-hydroxypropyl]-1,3-dimethylxanthine-3-methyl-
# (§4) pyrazole-5-carboxylate on the serum fatty acids (FFS) of
# Female rats, starve for 5 hours
# (§5) Dose: 100 mg/kg body weight, oral by esophagus probe,
# (§6) Blood removal: 1 hour after application
# serum fatty acids (FFS) [3] = assay: influence on the serum fatty acids (FFS) of hyperlipacidaemic rats, alcohol lipolysis; format: in vivo, rats (Wistar); conditions: alcohol 2 g/kg i.v., 100 mg/kg oral 3 hours before blood removal
# Description: as §1
# rats, starve for 5 hours,
# Dose: alcohol 2g/kg body weight in 20% solution i.v.,
# Dose: active principle according to the invention
# 100 mg/kg body weight, oral by esophagus probe
# 3 hours before blood removal
# free fatty acids (FFS) [4] = assay: influence on the free fatty acids (FFS) in starved (hyperlipacidaemic) animals, hunger lipolysis; format: in vivo, rats (Wistar); conditions: 1 hour
# Description: as §1, §2, §3, §4
# Male Rats, starve for 17 hours
# as §5, §6
# pyrazole-5-carboxylate on the free fatty acids (FFS) in
# starved animals 1 hour after application
# Comparative examinations of the influence of 7-[3-(N-methyl-
# carboxylic acid on the free fatty acids (FFS) in starved
# animals 1 hour after application
# pyrazole-5-carboxylic acid on the free fatty acids (FFS)
# in starved animals 6 hours after application
smiles,measurement,setting,value
"CN(CCO)CC(O)Cn1cnc2c1c(=O)n(C)c(=O)n2C.Cc1cc(C(=O)O)[nH]n1 (stereo not drawn) [7-[3-(N-methyl-N-2-hydroxyethyl)-amino-2-hydroxypropyl]-1,3-dimethylxanthine-3-methylpyrazole-5-carboxylate]",effect on the serum cholesterol on repeated application,"serum cholesterol; 100 mg/kg over 4 days, result in words","uniform and, in some cases, even increased effect; also recorded: still significantly reduced"
same,serum cholesterol,serum cholesterol; 1st day,71.70 mg % and 49.06 mg % and 51.89 mg % and 67.92 mg % and 68.87 mg % and 52.83 mg % and 50.94 mg %
same,"serum cholesterol, mean (x10)",serum cholesterol; 1st day,58.68 mg %
same,serum cholesterol,serum cholesterol; 2nd day,37.4 mg % and 54.2 mg % and 55.2 mg % and 69.9 mg % and 65.0 mg % and 69.1 mg % and 39.4 mg % and 47.3 mg % and 49.3 mg % and 51.2 mg %
same,"serum cholesterol, mean (x10)",serum cholesterol; 2nd day,53.8 mg %
same,serum cholesterol,serum cholesterol; 3rd day,52.36 mg % and 71.24 mg % and 67.81 mg % and 50.64 mg % and 57.51 mg % and 64.38 mg % and 62.66 mg % and 68.67 mg % and 60.94 mg %
same,"serum cholesterol, mean (x10)",serum cholesterol; 3rd day,62.75 mg %
same,serum cholesterol,serum cholesterol; 4th day,42.98 mg % and 37.19 mg % and 52.07 mg % and 64.46 mg % and 80.99 mg % and 47.11 mg % and 65.29 mg % and 58.68 mg % and 50.41 mg % and 43.80 mg %
same,"serum cholesterol, mean (x10)",serum cholesterol; 4th day,54.30 mg %
same,free fatty acids (FFS),free fatty acids (FFS) [1]; 30' after last application,0.72 μval/ml plasma and 0.94 μval/ml plasma and 0.69 μval/ml plasma and 0.83 μval/ml plasma and 1.36 μval/ml plasma and 0.89 μval/ml plasma and 0.66 μval/ml plasma and 0.67 μval/ml plasma and 0.86 μval/ml plasma and 1.07 μval/ml plasma
same,free fatty acids (FFS),free fatty acids (FFS) [1]; 1 h after last appl.,0.75 μval/ml plasma and 0.42 μval/ml plasma and 0.45 μval/ml plasma and 0.56 μval/ml plasma and 0.67 μval/ml plasma and 0.54 μval/ml plasma and 0.86 μval/ml plasma and 0.63 μval/ml plasma and 0.98 μval/ml plasma and 0.89 μval/ml plasma
same,free fatty acids (FFS),free fatty acids (FFS) [1]; 2 h after last appl.,0.79 μval/ml plasma and 0.58 μval/ml plasma and 0.94 μval/ml plasma and 0.80 μval/ml plasma and 1.10 μval/ml plasma and 1.07 μval/ml plasma and 0.84 μval/ml plasma and 0.90 μval/ml plasma and 0.97 μval/ml plasma and 0.83 μval/ml plasma
same,"free fatty acids (FFS), mean (x10)",free fatty acids (FFS) [1]; 30' after last application,0.87 μval/ml plasma
same,"free fatty acids (FFS), mean (x10)",free fatty acids (FFS) [1]; 1 h after last appl.,0.68 μval/ml plasma
same,"free fatty acids (FFS), mean (x10)",free fatty acids (FFS) [1]; 2 h after last appl.,0.88 μval/ml plasma
same,weakening of effect on free fatty acid content by pretreatment,"free fatty acids (FFS) [1]; repeated application, result in words",does not have this effect
same,FFS,"serum fatty acids (FFS) [2]; individual animals, starve for 5 hours, 100 mg/kg",0.51 μval/ml and 0.58 μval/ml and 0.52 μval/ml and 0.56 μval/ml and 0.57 μval/ml and 0.48 μval/ml and 0.54 μval/ml
same,"FFS, mean (φ)","serum fatty acids (FFS) [2]; mean of test series, control φ 0.60",0.53 μval/ml
same,FFS,"serum fatty acids (FFS) [3]; individual animals, 100 mg/kg",0.45 μval/ml and 0.58 μval/ml and 0.59 μval/ml and 0.60 μval/ml and 0.52 μval/ml and 0.56 μval/ml and 0.43 μval/ml and 0.66 μval/ml and 0.67 μval/ml and 0.53 μval/ml
same,"FFS, mean (φ)","serum fatty acids (FFS) [3]; mean, control φ 0.64, alcohol series φ 0.79, p<0.001",0.56 μval/ml
same,FFS,"free fatty acids (FFS) [4]; Table 2, individual animals, male rats, starve for 17 hours, 100 mg/kg oral, 100 mg/kg",0.29 μval/ml and 0.34 μval/ml and 0.54 μval/ml and 0.47 μval/ml and 0.67 μval/ml and 0.46 μval/ml and 0.44 μval/ml and 0.43 μval/ml and 0.39 μval/ml and 0.48 μval/ml and 0.51 μval/ml and 0.45 μval/ml
same,"FFS, mean (φ)","free fatty acids (FFS) [4]; Table 2, mean, male rats, starve for 17 hours, 100 mg/kg oral, control φ 0.91, p<0.001",0.46 μval/ml
same,FFS,"free fatty acids (FFS) [4]; Table 4 dose-effect, starved animals, 2.0 mg/kg, n 10, control 0.87, ***p<0.001",0.51 μval/ml
same,FFS,"free fatty acids (FFS) [4]; Table 4 dose-effect, starved animals, 2.5 mg/kg, n 13, control 0.86",0.50 μval/ml
same,FFS,"free fatty acids (FFS) [4]; Table 4 dose-effect, starved animals, 5 mg/kg, n 5, control 0.83",0.43 μval/ml
same,FFS,"free fatty acids (FFS) [4]; Table 4 dose-effect, starved animals, 10 mg/kg, n 10, control 0.97",0.53 μval/ml
same,FFS,"free fatty acids (FFS) [4]; Table 4 dose-effect, starved animals, 20 mg/kg, n 5, control 0.90",0.56 μval/ml
same,FFS,"free fatty acids (FFS) [4]; Table 4 dose-effect, starved animals, 30 mg/kg, n 4, control 1.02",0.54 μval/ml
same,FFS,"free fatty acids (FFS) [4]; Table 4 dose-effect, starved animals, 40 mg/kg, n 5, control 1.02",0.48 μval/ml
same,FFS,"free fatty acids (FFS) [4]; Table 4 dose-effect, starved animals, 50 mg/kg, n 10, control 1.08, **p<0.001",0.40 μval/ml
